From PubChem BioAssay (NCI)
“And” between values parts separate entries of the source, which are not always exact repeats. Equal entries are not always repeated.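 These data come from cells grown in 96-well plates and exposed to compound for 48 hours at five concentrations. Here, GI50 denotes the concentration required for 50% inhibition of growth. TGI: total growth inhibition.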

Legend:
Experiment in all cases: inhibition of tumour cell growth, NCI panel, 48 h
[1] = test system: SK-MEL-28 melanoma
[2] = test system: HCT-116 colon
[3] = test system: SF-268 CNS
[4] = test system: ACHN renal
[5] = test system: OVCAR-5 ovarian
[6] = test system: NCI-H460 lung
[7] = test system: MOLT-4 leukemia
[8] = test system: SK-MEL-5 melanoma
[9] = test system: SK-MEL-2 melanoma
[10] = test system: MDA-MB-231 breast

SMILES: COc1ccc2c(c1)/C(=N/OC(C)=O)c1c-2cnc2ccccc12
- GI50 [1]: 31.6 µM
- TGI [1]: 77.2 µM
- GI50 [2]: 21 µM
- TGI [2]: 48.1 µM
- GI50 [3]: 24 µM
- TGI [3]: 68.7 µM
- GI50 [4]: 20.4 µM
- TGI [4]: 45.4 µM
- GI50 [5]: 21.9 µM
- TGI [5]: 55.6 µM
- GI50 [6]: 30.3 µM
- TGI [6]: > 100 µM
- GI50 [7]: 20 µM
- TGI [7]: 92.2 µM
- GI50 [8]: 17.6 µM
- TGI [8]: 48.5 µM
- GI50 [9]: 26.9 µM
- TGI [9]: 64.6 µM
- GI50 [10]: 22.1 µM
- TGI [10]: 59.4 µM

SMILES: Cc1cc2nc3c4ccc(Br)cc4n(CCN(C)C)c3nc2cc1C
- GI50 [1]: 1.69 µM
- TGI [1]: 3.12 µM
- GI50 [2]: 0.451 µM
- TGI [2]: 2.14 µM
- GI50 [3]: 2 µM
- TGI [3]: 6.24 µM
- GI50 [4]: 0.459 µM
- TGI [4]: 2.23 µM
- GI50 [5]: 1.99 µM
- TGI [5]: 5.88 µM
- GI50 [6]: 1.26 µM
- TGI [6]: 3.95 µM
- GI50 [7]: 0.412 µM
- TGI [7]: 5.62 µM
- GI50 [8]: 1.72 µM
- TGI [8]: 3.12 µM
- GI50 [9]: 2 µM
- TGI [9]: 4.24 µM
- GI50 [10]: 1.97 µM
- TGI [10]: 7.45 µM

SMILES: CN1CCN(c2ccc3nc(-c4ccc(OCCCCN5CCN(CCCCN6C(=O)c7cccc8cccc(c78)C6=O)CC5)cc4)[nH]c3c2)CC1
- GI50 [1]: 19.4 µM
- TGI [1]: 49.9 µM
- GI50 [2]: > 100 µM
- TGI [2]: > 100 µM
- GI50 [3]: > 100 µM
- TGI [3]: > 100 µM
- GI50 [4]: 25.6 µM
- TGI [4]: 64.1 µM
- GI50 [5]: > 100 µM
- TGI [5]: > 100 µM
- GI50 [6]: 63.4 µM
- TGI [6]: > 100 µM
- GI50 [7]: 51.1 µM
- TGI [7]: > 100 µM
- GI50 [8]: 18.8 µM
- TGI [8]: 76.9 µM
- GI50 [9]: 95.6 µM
- TGI [9]: > 100 µM
- GI50 [10]: 54.7 µM
- TGI [10]: > 100 µM

SMILES: C=CC(C)(O)CC/C=C(\CO)C(=O)OC1C(C)OC(O[C@](C)(C=C)CC/C=C(\CO)C(=O)O[C@H]2C[C@@]3(C(=O)OC4OC(CO)C(O)C(O)C4OC4OC(C)C(OC5OC(CO)C(O)C5O)C(OC5OC(CO)C(O)C(O)C5O)C4O)C(CC2(C)C)C2=CCC4[C@@]5(C)CC[C@H](OC6OC(COC7OC(C)C(O)C(O)C7OC7OCC(O)C(O)C7O)C(O)C(O)C6NC(C)=O)C(C)(C)C5CC[C@@]4(C)[C@]2(C)C[C@H]3O)C(O)C1O (stereo not given in full)
- GI50 [1]: 0.0852 µM
- TGI [1]: 0.248 µM
- GI50 [2]: 0.143 µM
- TGI [2]: 6.93 µM
- GI50 [3]: 0.174 µM
- TGI [3]: 0.893 µM
- GI50 [4]: 0.0771 µM
- TGI [4]: 0.209 µM
- GI50 [5]: 1.38 µM
- TGI [5]: 5.95 µM
- GI50 [6]: 3.72 µM
- TGI [6]: 9.79 µM
- GI50 [7]: 0.886 µM
- TGI [7]: 12.9 µM
- GI50 [8]: 1.99 µM
- TGI [8]: 6.22 µM
- GI50 [9]: 0.229 µM
- TGI [9]: 1.5 µM
- GI50 [10]: 0.0722 µM
- TGI [10]: 0.39 µM

SMILES: O=C(/C=C/c1cccc2ccccc12)Nc1ncc(Cc2ccccc2)s1
- GI50 [1]: 3.89 µM
- TGI [1]: > 100 µM
- GI50 [2]: 0.46 µM
- TGI [2]: 11.6 µM
- GI50 [3]: 2.61 µM
- TGI [3]: > 100 µM
- GI50 [4]: 1.95 µM
- TGI [4]: 6.02 µM
- GI50 [5]: 1.98 µM
- TGI [5]: > 100 µM
- GI50 [6]: 0.861 µM
- TGI [6]: 5.19 µM
- GI50 [7]: 1.65 µM
- TGI [7]: > 100 µM
- GI50 [8]: 1.8 µM
- TGI [8]: > 100 µM
- GI50 [9]: 1.41 µM
- TGI [9]: > 100 µM
- GI50 [10]: 2 µM
- TGI [10]: > 40.3 µM

SMILES: COc1ccc(-c2nc(C(=O)c3ccccc3)n(CC(=O)c3ccc(Cl)cc3)c2-c2ccc(OC)cc2)cc1
- GI50 [1]: > 100 µM
- TGI [1]: > 100 µM
- GI50 [2]: > 100 µM
- TGI [2]: > 100 µM
- GI50 [3]: > 100 µM
- TGI [3]: > 100 µM
- GI50 [4]: > 100 µM
- TGI [4]: > 100 µM
- GI50 [5]: > 100 µM
- TGI [5]: > 100 µM
- GI50 [6]: > 100 µM
- TGI [6]: > 100 µM
- GI50 [7]: > 100 µM
- TGI [7]: > 100 µM
- GI50 [8]: > 100 µM
- TGI [8]: > 100 µM
- GI50 [9]: > 100 µM
- TGI [9]: > 100 µM
- GI50 [10]: > 100 µM
- TGI [10]: > 100 µM

SMILES: O=C(/C=C/c1ccccc1)CCC1C(=O)NC(=S)NC1=O
- TGI [1]: > 100 µM
- TGI [2]: > 100 µM
- TGI [3]: > 100 µM
- TGI [4]: > 100 µM
- TGI [5]: > 100 µM
- TGI [6]: > 100 µM
- TGI [7]: > 100 µM
- TGI [8]: > 100 µM
- TGI [9]: > 100 µM
- TGI [10]: > 100 µM

SMILES: Cc1cc2nc(-c3c(F)cccc3Cl)n(Cc3c(F)cccc3Cl)c2cc1C
- GI50 [1]: 24.8 µM
- TGI [1]: 55.2 µM
- GI50 [2]: 6.43 µM
- TGI [2]: 20.3 µM
- GI50 [3]: 11 µM
- TGI [3]: 31.7 µM
- GI50 [4]: 14.5 µM
- TGI [4]: 45.6 µM
- GI50 [5]: 15.9 µM
- TGI [5]: 34.1 µM
- GI50 [6]: 6.32 µM
- TGI [6]: 30.9 µM
- GI50 [7]: 30.4 µM
- TGI [7]: > 100 µM
- GI50 [8]: 11.2 µM
- TGI [8]: 23.6 µM
- GI50 [9]: 50.2 µM
- TGI [9]: > 100 µM
- GI50 [10]: 10.4 µM
- TGI [10]: 23.1 µM

SMILES: O=C(/C=C/c1ccco1)c1ccc(Nc2nc(Nc3ccc(F)cc3)nc(Nc3ccc(F)cc3)n2)cc1
- GI50 [1]: 18.3 µM
- TGI [1]: 44.3 µM
- GI50 [2]: 21 µM
- TGI [2]: > 100 µM
- GI50 [3]: 7.49 µM
- TGI [3]: 30.8 µM
- GI50 [4]: > 100 µM
- TGI [4]: > 100 µM
- GI50 [5]: 47.6 µM
- TGI [5]: > 100 µM
- GI50 [6]: 13.1 µM
- TGI [6]: 59 µM
- GI50 [7]: 11.9 µM
- TGI [7]: 48.8 µM
- GI50 [8]: 27 µM
- TGI [8]: > 100 µM
- GI50 [9]: 39 µM
- TGI [9]: > 100 µM
- GI50 [10]: 23.7 µM
- TGI [10]: > 100 µM

SMILES: COc1cc(-c2cc(=O)c3c(O)c(OC)c(OC)c(OC)c3o2)cc(OC)c1OC
- TGI [1]: > 100 µM
- TGI [2]: > 44.9 µM
- TGI [3]: > 100 µM
- TGI [4]: > 100 µM
- TGI [5]: > 100 µM
- TGI [6]: > 100 µM
- TGI [7]: > 100 µM
- TGI [8]: > 100 µM
- TGI [9]: > 100 µM
- TGI [10]: 38.5 µM

SMILES: Cn1cc(-c2nc(N[C@@H]3CCCC[C@@H]3N)c(F)c3c2C(=O)NC3)cn1
- GI50 [1]: 8.96 µM and 10.8 µM
- TGI [1]: > 100 µM
- GI50 [2]: 3.66 µM and 4.67 µM
- TGI [2]: 47.7 µM and > 83.3 µM
- GI50 [3]: 5.42 µM and 6.7 µM
- TGI [3]: > 100 µM
- GI50 [4]: 3.08 µM and 4.65 µM
- TGI [4]: > 100 µM
- GI50 [5]: 7.14 µM and 8.43 µM
- TGI [5]: > 100 µM
- GI50 [6]: 5.87 µM and 6.08 µM
- TGI [6]: 63.2 µM and > 100 µM
- GI50 [7]: 4.74 µM and 6.87 µM
- TGI [7]: > 80.2 µM and 98.9 µM
- GI50 [8]: 29.2 µM and 22.6 µM
- TGI [8]: > 100 µM
- GI50 [9]: 20.5 µM and 24.9 µM
- TGI [9]: > 100 µM
- GI50 [10]: 5.04 µM and 6.15 µM
- TGI [10]: 26.2 µM and 31.9 µM

SMILES: O=C(Cc1ccccc1)NN1C(=O)/C(=C\c2ccccc2O)SC1=Nc1ccccc1
- TGI [1]: > 100 µM
- TGI [2]: > 100 µM
- TGI [3]: > 100 µM
- TGI [4]: > 100 µM
- TGI [5]: > 100 µM
- TGI [6]: > 100 µM
- TGI [7]: > 100 µM
- TGI [8]: > 100 µM
- TGI [9]: > 100 µM
- TGI [10]: > 100 µM

SMILES: COc1ccc(C2=Nc3c/c(=C\c4c(O)[nH]c5cc(Cl)ccc45)ccc3=N2)cc1
- GI50 [1]: 1.55 µM
- TGI [1]: 19.9 µM
- GI50 [2]: 2.38 µM
- TGI [2]: 8.8 µM
- GI50 [3]: 12.9 µM
- TGI [3]: 32.4 µM
- GI50 [4]: 17.3 µM
- TGI [4]: 41.3 µM
- GI50 [5]: 22 µM
- TGI [5]: 60 µM
- GI50 [6]: 8.01 µM
- TGI [6]: 26.1 µM
- GI50 [7]: 4.85 µM
- TGI [7]: 29.9 µM
- GI50 [8]: 10.7 µM
- TGI [8]: 22.7 µM
- GI50 [9]: 8.86 µM
- TGI [9]: 26.6 µM
- GI50 [10]: 5.23 µM
- TGI [10]: 19.6 µM
